Source: US20070099912A1, “Pyrrolo[2,3-F] and [3,2-F]Isoquinolinone derivatives as 5-hydroxytryptamine-6 ligands” (Wyeth, priority 2005, published 2007)
Where a name gives a salt, the structure may show the parent alone.

Assays:
[1] = target: human cloned 5-HT6 receptors (Homo sapiens, UniProt P50406)
human cloned 5-HT6 receptors, sequence (P50406 whole entry): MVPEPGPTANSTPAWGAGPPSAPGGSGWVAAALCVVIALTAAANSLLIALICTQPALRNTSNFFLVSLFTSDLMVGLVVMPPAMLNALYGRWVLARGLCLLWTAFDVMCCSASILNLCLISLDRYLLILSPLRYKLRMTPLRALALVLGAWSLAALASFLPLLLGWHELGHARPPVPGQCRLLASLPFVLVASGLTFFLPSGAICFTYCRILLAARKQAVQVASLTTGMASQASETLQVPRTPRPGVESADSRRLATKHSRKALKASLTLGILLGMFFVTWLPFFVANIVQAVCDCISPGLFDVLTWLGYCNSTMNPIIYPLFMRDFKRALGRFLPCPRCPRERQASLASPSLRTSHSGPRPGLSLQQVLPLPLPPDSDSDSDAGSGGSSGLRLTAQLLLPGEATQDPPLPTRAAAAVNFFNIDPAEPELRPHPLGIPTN

| melting point | Ki [1] | SMILES |
| --- | --- | --- |
| 153 to 154 °C | – | NCCn1ccc2ccc3c(=O)n(Cc4ccccc4)ccc3c21 (as salt: hydrochloride) [Example 7, 1-(2-Aminoethyl)-7-benzyl-1,7-dihydro-6H-pyrrolo[2,3-f]isoquinolin-6-one hydrochloride] |
| 49 to 51 °C | – | CN(C)CCCn1ccc2c3ccn(Cc4ccc(F)cc4)c(=O)c3ccc21 [Example 16, 3-[3-(dimethylamino)propyl]-7-(4-fluorobenzyl)-3,7-dihydro-6H-pyrrolo[3,2-f]isoquinolin-6-one] |
| – | 180 nM | NCCn1ccc2ccc3c(=O)n(Cc4ccccc4)ccc3c21 [Example 7, 1-(2-Aminoethyl)-7-benzyl-1,7-dihydro-6H-pyrrolo[2,3-f]isoquinolin-6-one hydrochloride] |
| 229 to 231 °C | 507 nM | O=c1c2ccc3c(ccn3CCN3CCCC3)c2ccn1Cc1ccc(F)cc1 [Example 15, 7-(4-fluorobenzyl)-3-(2-pyrrolidin-1-ylethyl)-3,7-dihydro-6H-pyrrolo[3,2-f]isoquinolin-6-one] |

More lines, now with the values behind:

| SMILES | melting point | Ki [1] |
| --- | --- | --- |
| CN(C)CCn1ccc2c3ccn(Cc4ccc(F)cc4)c(=O)c3ccc21 [Example 14, 3-[2-(dimethylamino)ethyl]-7-(4-fluorobenzyl)-3,7-dihydro-6H-pyrrolo[3,2-f]isoquinolin-6-one] | 221 to 223 °C | 379 nM |
| NCCn1ccc2c3ccn(Cc4ccc(F)cc4)c(=O)c3ccc21 [Example 13, 3-(2-aminoethyl)-7-(4-fluorobenzyl)-3,7-dihydro-6H-pyrrolo[3,2-f]isoquinolin-6-one] | 203 to 205 °C | 426 nM |
| CN(C)CCn1ccc2ccc3c(=O)n(Cc4ccccc4)ccc3c21 (as salt: hydrochloride) [Example 6, 7-Benzyl-1-[2-(dimethylamino)ethyl]-1.7-dihydro-6H-pyrrolo[2,3-f]isoquinolin-6-one hydrochloride] | 100 to 102 °C | – |
| CN(C)CCn1ccc2ccc3c(=O)n(Cc4ccccc4)ccc3c21 [Example 6, 7-Benzyl-1-[2-(dimethylamino)ethyl]-1.7-dihydro-6H-pyrrolo[2,3-f]isoquinolin-6-one hydrochloride] | – | 388 nM |
